According to patent US20080267981A1, “Compositions and Methods for Delivery of Antitumor Agents” (The Scripps Research Institute, priority 2004, published 2008):

Legend:
SW1990 cells = experiment: MTT cell proliferation assay on SW1990 cells; type: cell-based; details: Homo sapiens
Procedure: (§1) Cell proliferation assay. The cytotoxicity of scFv-drug or free drug was quantified by using the Vybrant MTT cell proliferation assay kit (Molecular Probes). Assays were performed using 48-well microtiter plates containing 2×10^4 SW1990 (HdFa) cells/well in 300 μL of phenol-free growth medium. Cells were allowed to attach to the wells for 12 hours. For determination of IC50, cells were incubated for 3 or 12 h at 37° C. with various concentrations of Pan10-drug conjugates, maleimide derivatives or free drugs. Then the incubation was continued in conjugate/drug-free medium and the MTT assay was performed at the end of the seventh day. Medium was replaced with 100 μL of fresh medium containing 1.2 mM MTT and the incubation continued for three more hours. The cells were then lysed by adding 100 μL of a 10 mM solution of HCL containing SDS (100 mg/mL). The cell lysis was allowed to proceed for a period of 8 hours at the end of which the plate was centrifuged at 3000 rpm for 3 min and the supernatant transferred in a 96-well plate and read at 570 nm. Each assay included a […]. All assays were performed at least twice. A set of 8 data points was obtained with various concentration of cytotoxicity agent. In order to obtain the IC50 values, data points from each set were fit to the sigmoidal dose-response curve defined by Equation 3 using Grafit5 (Leatherbarrow R. J. 2003. Grafit version 5.08, Erithieus Software Ltd, Staines, England).
y^a=min y+[(max y−min y)/(1+(IC50/x^b)^slope)] (Equation 3)
^bx=concentration of drug (drug-scF)
Data points which were outliers (typically 1-2 per experiment) were discarded.
SW1990 cells treated with Pan10, Pan10-FM, Pan10-3 or Pan10-4 were examined by inverted microscopy for a qualitative determination of the effect of the drug conjugates on the cell viability. […] The cytotoxic effect of the Pan10-drug conjugates in comparison with the toxicity of the free drugs was then quantified by the MTT (3-(4,5-dimethylthiazol-2-yl)-2,5,-diphenyltetrazolium bromide) cell-proliferation assay. Liu et al., J Neurochem, 69: 581-593, 1997; Berridge et al., Arch Biochem Biophys, 303: 474-482, 1993; Vistica et al., Cancer Res, 51: 2515-2520, 1991. SW1990 pancreatic carcinoma cells were seeded and allowed to attach in growth medium overnight. The cultures were then treated for either 3 or 12 h with increasing concentrations of free drugs or Pan10-drug conjugates.

[1] = Parrish et al. 2003; different cell line, exposure time and cytotoxicity assay; read-out: IC50, previously obtained values; cited from earlier work
HdFa cells = experiment: MTT cell proliferation assay on normal HdFa cells; type: cell-based, human; details: normal HdFa cells versus SW1990 cancer cells
Procedure: as §1, with “In order to obtain the IC50 values, data points from each set were fit to the sigmoidal dose-response curve defined by Equation 3 using Grafit5 (Leatherbarrow R. J. 2003. Grafit version 5.08, Erithieus Software Ltd, Staines, England).” left out

Row | SMILES | IC50 (SW1990 cells; SW1990, 3 h) [nM] | IC50 (SW1990 cells; SW1990, 12 h) [nM] | IC50 [1] [nM] | IC50 on HdFa cells relative to IC50 against SW1990 cells (HdFa cells)
1 | CC(=O)c1ccc2[nH]c(C(=O)N3C[C@@H](CCl)c4c3cc(O)c3ccccc43)cc2c1 [compound 1, 3-(5-acetylindole-2-carbonyl)-1-(S)-(chloromethyl)-5-hydroxy-1,2-dihydro-3H-benz[e]indole] | 1.4 ± 0.2 | 0.43 ± 0.17 | 0.002 | roughly the same IC50 values against both cells lines
2 | NCCCn1c(C(=O)Nc2ccc3[nH]c(C(=O)N4CC(CCl)c5c4cc(O)c4ccccc54)cc3c2)cc2ccccc21 (stereo not shown) [compound 2, 3-[5-(1-(3-aminopropyl)indole-2-carbonyl)aminoindole-2-carbonyl]-1-(chloromethyl)-5-hydroxy-1,2-dihydro-3H-benz[e]indole] | 32.1 ± 13.1 | 4.3 ± 0.2 | 0.03 | 
